Values quoted from earlier work, collected in patent US20210213129A1, “NON-PSYCHOACTIVE CANNABINOIDS AS ADJUVANTS TO ENHANCE MUCOSAL IMMUNITY” (Immugen Pharma LLC, priority 2014, published 2021).

What was measured:
[1] = tested on: virgin and GC B cells
[2] = tested on: B-cells; conditions: cultured B-cells, co-stimulation with IL-4 and anti-CD40
[3] = tested on: macrophages; conditions: macrophages activated by LPS or TMEV
[4] = tested on: B cells; conditions: selective CB1 antagonist added
[5] = tested on: GATA3; IL12Rβ2; conditions: mice, after Legionella challenge
[6] = tested on: T cells; conditions: T cells stimulated by allogeneic dendritic cells or anti-CD3/anti-CD28
[7] = tested on: T cells; conditions: mixed lymphocyte reaction and highly purified T cells

SMILES: CCCCCCC(C)(C)c1ccc([C@@H]2C[C@H](O)CC[C@H]2CCCO)c(O)c1 [CP55940]
- proliferation of B-cell subsets ([1]; in the absence of CD40 MoAbs): incapable of inducing any proliferation
- increased IgE expression [2]: 40-60%

SMILES: CCCC(C)(C)c1ccc2c(c1)OC(C)(C)[C@@H]1CC=C(C)C[C@@H]21 [JWH-133]
- IL-12p40 [3]: downregulated

SMILES: Cc1c(C(=O)NN2CCCCC2)nn(-c2ccc(Cl)cc2Cl)c1-c1ccc(Cl)cc1 [SR141716A]
- block of CB2 receptor mRNA expression and of the B-cell enhancing effects of the drug [4]: did not block

SMILES: Cc1ccc(Cn2nc(C(=O)NC3C4(C)CCC(C4)C3(C)C)cc2-c2ccc(Cl)c(C)c2)cc1 (centres unmarked) [SR 144528A]
- proliferative response of virgin and GC B cells by CP55,940 ([1]; selective CB2 receptor antagonist against agonist CP55,940): inhibited

SMILES: CCCCCc1cc(O)c2c(c1)OC(C)(C)[C@@H]1CCC(C)=C[C@@H]21 [THC, tetrahydrocannabinol]
- TH2 biasing factor GATA3 ([5]; CB2 mechanism): upregulation
- IL12Rβ2, a marker of TH1 polarization ([5]; mediated by CB1 receptor): downregulation
- IL-4, % of diluent control levels ([6]; of diluent control levels): 105±11%
- decrease of INF-γ ([6]; p<0.05): 51±18%
- Th1 cytokines Il-2, IFN-γ and Il-12 ([7]; CB1 mediated): downregulation
- IL-4 and Il-5 ([7]; CB2 mediated): upregulation
